{
  "source": "patent US20130337095A1",
  "about": "“ANTIMICROBIAL COMPOSITION AND ITS METHOD OF USE” (Waikatolink Limited, priority 2012, published 2013)",
  "type_in_all_cases": "cell-based",
  "key": {"[1]": {"test_system": "Streptococcus agalactiae (NZRM 2721, ATCC 27956)", "assay": "MIC assay against S. agalactiae", "method": "(§1) To exemplify the concept of the present invention, the in vitro activity of three novel plant extracts melaleuca oil, manuka oil, and black walnut hull extract in a specific ratio described herein, were tested against an isolate of various microbes (methicillin-sensitive S. aureus, methicillin-resistant S. aureus, S. pyogenes, S. agalactiae, S. uberis, E. coli, C. albicans) from a reference library.\n(§2) MIC90 refers to the minimum inhibitory concentration required to inhibit the growth of 90% of the organisms. The methods and materials used for this preliminary study are outlined in Example 5.\n(§3) The test formulation, comprising three novel plant extracts melaleuca oil, manuka oil, and black walnut hull extract in a specific ratio described herein, was serially diluted to give 11 different concentrations. The diluted samples were then incubated with individual microbes, and the MICs were determined as the lowest concentration of test substance that inhibited the growth of the microbe as determined by measurement of OD650 nm using a VersaMax 96 well plate reader. […]"}, "[2]": {"test_system": "Staphylococcus aureus (NZCC 4410, ATCC 33591, Strain 328 methicillin resistant)", "assay": "MIC assay against methicillin-resistant S. aureus", "method": "as §1, §2, §3"}, "[3]": {"test_system": "Escherichia coli (NZRN 2220, ATCC 291214)", "assay": "MIC assay against E. coli", "method": "as §1, §2, §3"}, "[4]": {"test_system": "Pseudomonas aeruginosa (ESR strain 981, NTC 10662, ATCC 25668)", "assay": "MIC assay, in-vitro anti P. aeruginosa activity", "details": "antibiotics; for MIC90: Pseudomonas aeruginosa, ATCC25668", "method": "To exemplify the concept of the present invention, the in vitro activity of three novel plant extracts melaleuca oil, manuka oil, and black walnut hull extract, and blends of these extracts, were tested against an isolate of Pseudomonas aeruginosa from a reference library. MIC90 refers to the minimum inhibitory concentration required to inhibit the growth of 90% of the organisms. The methods and materials used for this preliminary study are outlined in Example 3.\n• The methodology used in this study is based on standard MIC assay methods referenced in numerous publications. • Each of the extracts was serially diluted to give 11 different concentrations. The diluted samples were then incubated with the Pseudomonas aeruginosa (ESR strain 981, NTC 10662, ATCC 25668, DSM 46358, NC/MB 13063). The MICs were determined as the lowest concentration of each extract that inhibits growth of the bacteria as determined by measurement of OD650 nm using a VersaMax 96 well plate reader.\n• Tryptic soy agar base (Bacto Difco Media Cat. No. 236940, Becton Dickinson and company). • Mueller II broth cation-adjusted (BBL media Cat. No. 212332, Becton Dickinson and company).\n• a) The isolate of Pseudomonas aeruginosa was streaked from −70° C. cryostocks onto Tryptic Soy Agar (TSA) plates and incubated for 24-48 hrs at 37° C. until visible single colonies developed. • b) One colony was picked, using a sterile inoculating loop and used to inoculate sterile 10 ml universals of Mueller II Cation-adjusted broth. Inoculated broths were incubated for approx 18 hrs at 37° C. • c) Following overnight incubation the culture was diluted with fresh sterile Mueller II cation adjusted broth to an OD650 nm of approximately 0.1, equivalent to approx […] (cell number and OD650 nm was determined and optimised prior to commencement of MIC testing). This is the seed broth which was used to inoculate the test wells in each plate. The seed culture was held at 4° C. until required for plating. • d) Stock solutions of each test extract were prepared so that their concentration is 64 μg/ml in the appropriate formulation in Mueller II cation adjusted broth. Once the extract was added to the broth it was mixed using a vortex mixer for approx 30 sec to ensure homogenous dispersion throughout the broth solution. • e) A 96 well microtitre plate was then set up as follows: To all wells, except the first in every row, 100 μl of sterile Mueller II cation adjusted broth was added. The plate was prepared up to 24 hrs in advance and held at −20° C. until ready for use. • f) If the plate was prepared in advance, it needed to be thawed at room temperature. […]"}, "[5]": {"test_system": "Streptococcus uberis (NZRM 2266 NCTC 3858)", "assay": "MIC assay against S. uberis", "method": "as §1, §2, §3"}, "Streptococcus pyogenes": {"test_system": "Streptococcus pyogenes", "assay": "MIC assay against S. pyogenes", "method": "as §1, §2, §3"}, "[6]": {"test_system": "Staphylococcus aureus (NZCC865, ATCC12598)", "assay": "MIC assay against S. aureus (methicillin-sensitive)", "method": "as §1, §2, §3"}},
  "note": "Where a name gives a salt, the structure may show the parent alone. Read-outs that look alike come from different tables or passages of the source.",
  "data": [
    {"molecule": "CC1=C(C(=O)O)N2C(=O)[C@@H](NC(=O)[C@H](N)c3ccccc3)[C@H]2SC1", "note": "[Cephalexin, Cephalexin hydrate]", "values": [
      {"measurement": "MIC antibiotic reference 16 h", "setting": "[1]; 16 h", "value": 0.098, "unit": "µg/mL"},
      {"measurement": "MIC antibiotic reference 24 h", "setting": "[1]; 24 h", "value": 0.098, "unit": "µg/mL"}
    ]},
    {"molecule": "C[C@H]1c2cccc(O)c2C(=O)C2=C(O)[C@]3(O)C(=O)C(C(N)=O)=C(O)[C@@H](N(C)C)[C@@H]3[C@@H](O)[C@@H]21", "note": "[Doxycycline]", "values": [
      {"measurement": "MIC antibiotic reference 16 h", "setting": "[2]; 16 h", "value": 0.05, "unit": "µg/mL"}
    ]},
    {"molecule": "CCN1CCN(c2cc3c(cc2F)c(=O)c(C(=O)O)cn3C2CC2)CC1", "note": "[Enfrofloxacin]", "values": [
      {"measurement": "MIC antibiotic reference 24 h", "setting": "[2]; 24 h", "value": 0.05, "unit": "µg/mL"}
    ]},
    {"molecule": "O=C(O)c1cn(C2CC2)c2cc(N3CCNCC3)c(F)cc2c1=O", "note": "[G. ciprofloxacin, ciprofloxacin]", "values": [
      {"measurement": "MIC antibiotic reference 16 h", "setting": "[3]; 16 h", "value": 0.049, "unit": "µg/mL"},
      {"measurement": "MIC antibiotic reference 24 h", "setting": "[3]; 24 h", "value": 0.049, "unit": "µg/mL"},
      {"measurement": "MIC90", "setting": "[4]; 18 h, read-out: MIC90 18 h", "value": 0.049, "unit": "µg/mL"},
      {"measurement": "MIC90", "setting": "[4]; 24 h, read-out: MIC90 24 h", "value": 0.098, "unit": "µg/mL"}
    ]},
    {"molecule": "CC1(C)S[C@@H]2[C@H](NC(=O)Cc3ccccc3)C(=O)N2[C@H]1C(=O)O", "note": "[Penicillin, Penicillin G sodium salt]", "values": [
      {"measurement": "MIC antibiotic reference 16 h", "setting": "[5]; 16 h", "value": 0.049, "unit": "µg/mL"},
      {"measurement": "MIC antibiotic reference 24 h", "setting": "[5]; 24 h", "value": 0.049, "unit": "µg/mL"},
      {"measurement": "MIC antibiotic reference 16 h", "setting": "Streptococcus pyogenes; 16 h", "value": 0.049, "unit": "µg/mL"},
      {"measurement": "MIC antibiotic reference 24 h", "setting": "Streptococcus pyogenes; 24 h", "value": 0.049, "unit": "µg/mL"}
    ]},
    {"molecule": "[H]/N=C(/N)N[C@H]1[C@H](O)[C@@H](O)[C@H](O[C@@H]2O[C@@H](C)[C@](O)(C=O)[C@H]2O[C@@H]2O[C@@H](CO)[C@H](O)[C@@H](O)[C@@H]2NC)[C@@H](N/C(N)=N\\[H])[C@@H]1O", "note": "[Streptomycin]", "values": [
      {"measurement": "MIC antibiotic reference 16 h", "setting": "[6]", "value": 0.003, "unit": "µg/mL"}
    ]},
    {"molecule": "gentamicin [F. gentamicin]", "values": [
      {"measurement": "MIC90 18 h", "setting": "[4]; 18 h", "value": 0.098, "unit": "µg/mL"},
      {"measurement": "MIC90 24 h", "setting": "[4]; 24 h", "value": 3.125, "unit": "µg/mL"}
    ]}
  ]
}
